From article PMC5342071, “A first generation inhibitor of human Greatwall kinase, enabled by structural and functional characterisation of a minimal kinase domain construct” (Oncotarget, 2016)

Columns and labels:
Format in all cases: biochemical
[1] = target: T1, ROCK1 (Homo sapiens, UniProt Q13464); assay: ROCK1 kinase assay (Promega); details: for IC50: ± S.D.
T1 construct: purchased Promega
Protocol: (§1) hGWLFL, 100 µl of lysate was diluted 5-fold with IP buffer and combined with 3 µl anti-Flag M2 magnetic Dynabeads [Sigma-Aldrich] overnight at 4 °C. After sequential washes with IP buffer, 1:1 mix of IP and kinase assay buffers and a final wash in kinase assay buffer, the beads were then used in the kinase assay. The reaction was stopped by adding SDS loading buffer and analysed by western blot: p-ENSA and GWL levels were detected using the anti-phospho(Ser67)-ENSA and anti-MASTL(GWL, Prestige) antibodies. Activity was measured as the p-ENSA/GWL ratio and % kinase activity was normalised to the DMSO control. All kinases assays were repeated thrice per assay condition and each point on the concentration-dependent response curves represents the mean ± 1 S.D.
(§2) PKA, ROCK1 and CDK2 kinase assays […]
(§3) Data were normalised against the AllStars negative control siRNA treated cells and values obtained from 3 – 5 biological replicates were reported as the mean ± 1 S.D.

[2] = target: T2, CDK2 (Homo sapiens, UniProt P24941); assay: CDK2 kinase assay, Histone H1 substrate, Kinase-Glo Max; details: for IC50: ± S.D.
T2 construct: made in house; host or cells: E. coli
Protocol: PKA, ROCK1 and CDK2 kinase assays
PKA and ROCK1 assays (Promega) were carried out according to the manufacturer’s protocols and CDK2 assays were carried out with Histone H1 as substrate (1 µg per 20 µl reaction) according to our Kinase-Glo Max assay. CDK2 was expressed and purified from E. coli as previously described (10). […]
as §3

[3] = target: T3, hGWL-KinDom (Homo sapiens, UniProt Q96GX5); assay: Inhibitor screen of pooled library with hGWL-KinDom (Kinase-Glo Max); details: for inhibition at 10 µM: 10 μM screening concentration, ATP concentration = 45 μM; for Rank in inhibitor screen: rank by potency in the screen
T3 construct: that encoded amino acids (aa) 1-194 + ‘RTFC’ + 740-879 of hGWL; GST (rhinovirus 3C-protease cleavable) (N, cleaved yes); made in house; host or cells: E. coli Rosetta2(DE3)
T3 sequence (Q96GX5 with tags, fused parts or gaps limits assumed): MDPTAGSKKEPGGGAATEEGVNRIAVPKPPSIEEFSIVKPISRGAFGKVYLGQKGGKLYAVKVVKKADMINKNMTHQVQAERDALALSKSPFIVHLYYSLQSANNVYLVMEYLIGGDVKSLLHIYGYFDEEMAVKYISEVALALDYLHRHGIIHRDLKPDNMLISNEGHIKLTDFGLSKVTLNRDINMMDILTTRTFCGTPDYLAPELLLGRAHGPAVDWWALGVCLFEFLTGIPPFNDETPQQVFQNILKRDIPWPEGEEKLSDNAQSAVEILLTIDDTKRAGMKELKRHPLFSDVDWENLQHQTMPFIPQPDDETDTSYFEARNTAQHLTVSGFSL
Protocol: Two small-molecule compound libraries, enriched with pharmacophores known to interact with the ATP-binding site of protein kinases, were screened as a pooled library in a Kinase-GloMax luminescence-kinase assay. page 4: […] Dynabeads [Sigma-Aldrich] overnight at 4 °C. After sequential washes with IP buffer, 1:1 mix of IP and kinase assay buffers and a final wash in kinase assay buffer, the beads were then used in the kinase assay. The reaction was stopped by adding SDS loading buffer and analysed by western blot: p-ENSA and GWL levels were detected using the anti-phospho([…] and […], Prestige) antibodies. Activity was measured as the […] ratio and % kinase activity was normalised to the DMSO control. All kinases assays were repeated thrice per assay condition and each point on the concentration-dependent response curves represents the mean ± 1 S.D. PKA, ROCK1 and CDK2 kinase assays PKA and ROCK1 assays (Promega) were carried out according to the manufacturer's protocols and CDK2 assays were carried out with Histone H1 as substrate (1 µg per 20 µl reaction) according to our Kinase-Glo Max assay. CDK2 was expressed and purified from E. coli as previously described (10). Inhibitor Screens with hGWL-KinDom Two small-molecule compound libraries, enriched with pharmacophores known to interact with the ATP- binding site of protein kinases, were kindly provided by GlaxoSmithKline and Roche. We used this pooled library (582 compounds, 10 µM screening concentrations) in a Kinase-Glo Max luminescence kinase assay (11, 12) as part of a two-point screen against hGWL-KinDom kinase activity, using ATP at fixed concentrations of […] With STU as positive control at a […] 4A,B). […] rate = 5.8%; Supplementary Figure 4A). Molecular Docking - AutoDock AT13148 and GKI-1/2 were docked into the ATP-binding site of the hGWL-KinDom crystal structure (where the disordered C-helix was homology-modelled) using AutoDock 4.2.6. PDB format files for the ligand and kinase domain were pre-processed using AutoDock Tools 1.5.6 as described in Mohamed, et al. (13). (Figure 4 and Supplementary Figure 6A,B). Immunofluorescence and Time-lapse video microscopy 2.5 X 105 HeLa cells were plated onto glass coverslips in a 6-well plate, or 4-well µ-slides [Ibidi GmbH] were seeded with 5 X 104 cells and then transfected with Qiagen AllStars negative control or Hs_MASTL_6 siRNAs (14) using Lipofectamine RNAiMax [ThermoFisher Scientific]. Media was exchanged with fresh media the next day. 48 hours after siRNA treatment, only cells to be used for immunofluorescence (IF) were treated with nocodazole (200 ng/mL) and DMSO or GKI-1 at the indicated concentration. For IF, cells were fixed, stained with primary mouse anti-GWL and rabbit anti-p-ENSA antibodies, secondary Alexa Fluor 647-conjugated anti- rabbit and Alexa Fluor 488-conjugated anti-mouse antibodies, DAPI and mounted onto glass microscope slides using Diamond Antifade Mountant [Molecular Probes, ThermoFisher Scientific]. Quantitation of IF images was performed using the […]-Content Screening Station [Olympus Life Science] which acquired 220, 40x images per cover slip. Data were normalised against the AllStars negative control siRNA treated cells and values obtained from three biological replicates were reported as the mean ± 1 S.D. To assist with selecting mitotic cells, ScanR imaging software was utilised to gate for mitotic cells using the circularity factor and total DAPI parameters. To produce time-lapse videos, after 48 hours and cell treatment with DMSO or compound (cells were treated with GKI-1 for 4-h before image acquisition) cells plated in 4-well µ-slides were imaged every 5 minutes for 8.5 hours on an Olympus IX73 microscope, using a 40 x 0.95NA air objective, and recorded on an Orca-Flash 4.0 CMOS camera [Hamatsu]. The computer program Fiji (http://www.fiji.sc/Fiji) was used to generate videos from image sequence TIF files. Data were normalised against the AllStars negative control siRNA treated cells and […]

[4] = target: T4, PKA (Homo sapiens, UniProt P17612); assay: PKA kinase assay (Promega); details: for IC50: ± S.D.
T4 construct: purchased Promega
Protocol: as §1, §2, §3

T1 sequence (Q13464 whole entry): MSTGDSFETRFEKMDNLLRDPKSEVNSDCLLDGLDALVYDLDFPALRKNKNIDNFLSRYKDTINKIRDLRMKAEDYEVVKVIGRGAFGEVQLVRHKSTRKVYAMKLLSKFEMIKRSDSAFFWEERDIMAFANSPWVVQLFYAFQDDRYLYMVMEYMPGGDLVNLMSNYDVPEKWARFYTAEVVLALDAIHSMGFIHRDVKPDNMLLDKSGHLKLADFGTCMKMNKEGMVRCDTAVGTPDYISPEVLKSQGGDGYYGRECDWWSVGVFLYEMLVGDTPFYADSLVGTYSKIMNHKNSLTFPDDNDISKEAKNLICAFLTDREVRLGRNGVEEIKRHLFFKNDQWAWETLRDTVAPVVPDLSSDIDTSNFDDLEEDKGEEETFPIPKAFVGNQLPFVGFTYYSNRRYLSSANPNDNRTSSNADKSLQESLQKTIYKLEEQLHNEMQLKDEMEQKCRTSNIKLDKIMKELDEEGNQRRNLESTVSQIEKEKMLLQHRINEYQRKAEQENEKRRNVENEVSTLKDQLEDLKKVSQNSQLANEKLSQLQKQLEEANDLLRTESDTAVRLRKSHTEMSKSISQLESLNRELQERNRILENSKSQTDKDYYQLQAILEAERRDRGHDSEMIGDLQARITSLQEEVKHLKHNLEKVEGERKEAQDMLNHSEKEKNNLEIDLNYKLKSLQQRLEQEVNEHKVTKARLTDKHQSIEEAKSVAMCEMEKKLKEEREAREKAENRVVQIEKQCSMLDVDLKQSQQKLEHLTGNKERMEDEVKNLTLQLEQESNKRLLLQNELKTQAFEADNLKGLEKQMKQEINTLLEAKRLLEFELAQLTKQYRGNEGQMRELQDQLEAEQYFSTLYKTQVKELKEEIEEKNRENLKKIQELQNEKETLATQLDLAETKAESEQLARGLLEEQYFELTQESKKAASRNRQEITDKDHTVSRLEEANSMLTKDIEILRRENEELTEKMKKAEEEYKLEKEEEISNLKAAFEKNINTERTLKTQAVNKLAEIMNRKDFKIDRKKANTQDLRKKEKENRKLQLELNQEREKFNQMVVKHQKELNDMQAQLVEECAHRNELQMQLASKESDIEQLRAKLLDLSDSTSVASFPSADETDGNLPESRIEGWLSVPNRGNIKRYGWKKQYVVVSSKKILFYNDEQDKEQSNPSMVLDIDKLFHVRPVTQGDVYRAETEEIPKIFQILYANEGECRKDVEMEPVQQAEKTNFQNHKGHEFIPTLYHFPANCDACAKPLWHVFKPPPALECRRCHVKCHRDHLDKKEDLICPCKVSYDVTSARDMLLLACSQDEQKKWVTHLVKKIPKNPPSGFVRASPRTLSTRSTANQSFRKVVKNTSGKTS

SMILES	IC50 [1] [µM]	IC50 [2] [µM]	inhibition at 10 µM [3] [%]	Rank in inhibitor screen [3]	IC50 [4] [µM]	selectivity for hGWL^FL over ROCK1 [1] [fold]	inhibitory activity towards CDK2 ([2]; concentrations up to 100 μM)	selectivity for hGWL^FL over PKA [4]
CCN(CC)Cc1ccc(Nc2nccc(-c3cnn4ncccc34)n2)cc1 [GRI-4]	21.6 ± 5.3	0.089 ± 0.003	30.1	8	> 100			
Clc1ccc(Nc2cccc(-c3cn[nH]c3)c2)cc1 [GKI-1, N-(4-chlorophenyl)-3-(1H-pyrazol-4-yl)aniline]	11.3 ± 3.4	> 100			> 40	2	no observable inhibitory activity	greater than 8 fold
CN(C)CC#Cc1cccc(C(=O)c2cnn(-c3ccc(F)cc3)c2N)c1 [GRI-3]			39.6	3				
